Measurements from EPA's ToxValDB 9.5 (doi:10.2903/j.efsa.2020.6227).

Columns and labels:
Bibionidae = conditions: chronic/long-term; duration: 28 days
Neomysis kadiakensis = conditions: acute; duration: 96 hours; mortality
Daphnia magna = conditions: chronic/long-term; duration: 21 days
Anas platyrhynchos = conditions: oral
Folsomia candida = conditions: chronic/long-term; duration: 28 days; reproduction
Apis mellifera = conditions: acute, duration: 24 hours, mortality
Tagia sp. = conditions: chronic/long-term; duration: 56 days; reproduction

Q: CC[C@H](C)[C@H]1O[C@]2(C=C[C@@H]1C)C[C@@H]1C[C@@H](C/C=C(\C)[C@@H](O[C@H]3C[C@H](OC)[C@@H](O[C@H]4C[C@H](OC)[C@@H](O)[C@H](C)O4)[C@H](C)O3)[C@@H](C)/C=C/C=C3\CO[C@@H]4[C@H](O)C(C)=C[C@@H](C(=O)O1)[C@]34O)O2.CO[C@H]1C[C@H](O[C@H]2[C@H](C)O[C@@H](O[C@@H]3/C(C)=C/C[C@@H]4C[C@@H](C[C@]5(C=C[C@H](C)[C@@H](C(C)C)O5)O4)OC(=O)[C@@H]4C=C(C)[C@@H](O)[C@H]5OC/C(=C\C=C\[C@@H]3C)[C@]54O)C[C@@H]2OC)O[C@@H](C)[C@@H]1O [Abamectin] was tested. Which NOEC (Bibionidae) did it give?
A: 3.3 µg/kg

Q: What about the LD50 (Rattus norvegicus; acute, oral, M, mortality) of the same compound?
A: 8.7 mg/kg-day

Q: And the NOAEL (Rattus norvegicus; developmental, development)?
A: 0.12 mg/kg-day

Q: And the LC50 (Neomysis kadiakensis)?
A: 0.02 ng/mL

Q: And the LC50 (Oncorhynchus mykiss; acute, duration: 96 hours, mortality)?
A: 2.5 ng/mL

Q: And the NOEC (Oncorhynchus mykiss; chronic/long-term, duration: 72 days)?
A: 0.52 µg/L

Q: And the NOEC (Daphnia magna)?
A: 0.0067 µg/L

Q: What about the LD50 (Anas platyrhynchos; acute, unspecified, mortality) of the same compound?
A: 26 mg/kg-day

Q: And the NOEC (Anas platyrhynchos; reproductive, feed)?
A: 6 mg/kg

Q: And the NOEC (Folsomia candida)?
A: 0.04 mg/kg

Q: And the LD50 (Apis mellifera; dermal)?
A: 0.001 µg/piece

Q: What about the LD50 (Apis mellifera; oral, unspecified) of the same compound?
A: 0.004 µg/piece

Q: And the NOEC (Tagia sp.)?
A: < 0.036 mg/kg
